Publication PMC12637173, “Investigation on LASSBio‐1971 and LASSBio‐1974 Cellular Cytotoxic Mechanism and Their Comparative DMPK Profile” (Archiv Der Pharmazie, 2025)

Columns and labels:
PAMPA‐GIT = type: in vitro ADME; details: PAMPA-GIT; for Classification: standard drugs used as control; for Fa exp. / Papp: standard drugs used as control (n = 2); for Papp: read-out: Pe experimental
Method: (§1) The lipid mixture that impregnates the filter has a different constitution for the permeability tests for the BBB (brain lipid from pig extract in n‐dodecane) and the GIT (L‐α soy phosphatidylcholine in n‐dodecane). The optical density values obtained in the reading at each selected wavelength, for each of the compounds, were analyzed in comparison with the values of several controls within a calibration curve (≥ 7 drugs). In the case of the BBB, these values were used to elaborate an equation and determine the permeability coefficient (Pe), while GIT used absorbed fraction (Fa%).

[1] = PAMPA-GIT, standard drugs; literature value, ref not given; cited from earlier work
PAMPA‐BBB = type: in vitro ADME; details: PAMPA-BBB
Method: as §1

[2] = tested on: NCI‐H1975 (EGFRL858R/T790M); experiment: Cell viability by MTT assay, NCI-H1975; details: Homo sapiens, NCI-H1975, 48 h, read-out: cytotoxic activity, NCI-H1975 (EGFRL858R/T790M)
Method: All cell lines were harvested at 37°C and 5% CO2 atmosphere humid incubator.
Cells were plated at 1 × 10^4 to 3 × 10^4 cells/well and seeded in a 96‐well plate. After 16–24 h of cell acclimatization, compounds were added at 0.003–100 µM concentrations (1% DMSO vehicle). After 72 h, treatment was interrupted to measure cell viability using MTT (3‐(4,5‐dimethylthiazol‐2‐yl)‐2,5‐diphenyltetrazolium bromide) (50 µg/mL) [62]. Formazan formed by viable cells was solubilized after 4 h incubation with SDS/HCl solution (0.1 g/mL) and read at 570 nm in spectrophotometer.

PC‐9 (EGFRL858R) = experiment: Apoptosis by flow cytometry (Muse Annexin V & Dead Cell Kit); type: cell-based, human; details: PC‐9, 72 h, at their CC50
Method: PC‐9 (EGFRL858R) cell line was seeded at 1 × 10^5 cells/well in a 24‐well plate. […] All flow cytometry assays were performed using Guava Muse Cell Analyzer (Cytek Biosciences) following each kit user's guide provided by the manufacturer. Muse Cell Cycle Kit (catalog no. MCH100106) was chosen to evaluate cell cycle arresting. Apoptosis features were evaluated using Muse Annexin V & Dead Cell Kit (catalog no. MCH100105), as well as inactivation of EGFR using Muse EGFR‐RTK Activation Dual Detection Kit (catalog no. MCH200102). Statistical analysis was performed using one‐way ANOVA on data collected in duplicate from at least two independent experiments (n ≥ 2), employing GraphPad Prism software (version 8.0).

SMILES	Classification (PAMPA‐GIT)	Fa exp. (PAMPA‐GIT) [%]	Papp (PAMPA‐GIT) [×10⁻⁶ cm/s]	Fa lit. [1] [%]	other results
O=C(O)Cc1ccccc1Nc1c(Cl)cccc1Cl [Diclofenac]	High (high intestinal permeability (70%–100%))	99.31	13.1	100	Pe literature [1]: 12.50 10^-6 cm s^-1
Nc1nc2c(ncn2COCCO)c(=O)[nH]1 [Acyclovir]		1.70			
CO/N=C(\C(=O)N[C@@H]1C(=O)N2C(C(=O)O)=C(CSc3nc(=O)c(=O)[nH]n3C)CS[C@H]12)c1csc(N)n1 [Ceftriaxone]	Low (low permeability (0%–29%))	1.37	0.67	1	Pe literature [1]: 0.10 10^-6 cm s^-1
CC(C)NCC(O)COc1ccc(CC(N)=O)cc1 (centres unmarked) [Atenolol]		2.26		5.2	
CCn1cc(C(=O)O)c(=O)c2cc(F)c(N3CCNCC3)nc21 [Enoxacin, reference compound]					Classification (PAMPA‐BBB; standard drugs used as control): CNS +; Papp (PAMPA‐BBB; standard drugs used as control (n = 2), read-out: Pe experimental): 0.56 ×10⁻⁶ cm/s
CNC(=C[N+](=O)[O-])NCCSCc1ccc(CN(C)C)o1 [Ranitidine]	Medium (medium permeability (30%–69%))	38.29	0.3		
C#Cc1cccc(Nc2ncnc3cc(OCCOC)c(OCCOC)cc23)c1 [Erlotinib, erlotinib, reference compound]					IC50 [2]: > 100 µM; increase in the population of cells undergoing apoptosis (PC‐9 (EGFRL858R)): approximately 10%
